These results are taken from PMC3573878 (Structure (London, England : 1993), 2012).

The target in the assay is ex-LdtMt2 (LdtMt2; MT2594; product of gene Rv2518c) (Mycobacterium tuberculosis, UniProt O53223). In words: isothermal titration calorimetry, single-site model. The format is binding.

`C[C@@H](O)[C@H]1C(=O)N2C(C(=O)O)=C(SCCN=CN)C[C@H]12` [imipenem]: the Kd (as a rule, a measure of binding affinity in units of concentration) is 54.8 ± 8.8 nM.
